Assay results reported in patent US4904819A, “Bicyclic sulfonamide derivatives and process therefor” (Shionogi & Co., Ltd., priority 1987, dated 1990).

System: washed platelet
Test: Inhibition of platelet aggregation caused by collagen (washed platelet, aggregometer)
Assay type: cell-based, male rat (Sprague-Dowley)
Conditions: 0.05 h; platelet aggregating agent: collagen, 4 μg/ml final; rat washed platelet, 37° C.; measured 3 minutes after adding agent; read-out: Inhibition of Platelet Aggregation [50% Inhibitory Concentration]
Description: From the abdominal artery of a male rat (Sprague-Dowley, 8 weeks old) was collected 10 ml of blood with a syringe containing 1.5 ml of ACD (85 mM sodium citrate, 70 mM citric acid, 110 mM glucose) and 20 μg of prostaglandin E1. The blood is placed in a plastic test tube, mixed by moderate turning and centrifuged for 10 minutes at 160×g to give platelet rich plasma (PRP). To the prepared PRP was added apyrase (25 μg/ml) and the mixture was layered on 40% bovine serum albumin. The resulting mixture is centrifuged at 1200×g for 25 minutes. The platelet pellet suspended in a small amount of a buffer (137 mM NaCl, 2.7 mM KCl, 1.0 mM MgCl2, 3.8 mM NaH2 PO4, 3.8 mM Hepes, 5.6 mM glucose, 0.035% bovine serum albumin, pH 7.35) was applied on 10 ml of Sepharose 2B column and eluted with the buffer to prepare a washed platelet.
The platelet aggregation reaction was measured by an aggregometer (NKK HEMA TRACER 1 MODEL PAT-6A·6M, Niko bioscience). In a measuring cuvette was placed 245 μl of the washed platelet of which platelet number was adjusted to 5×10^5 /μl and set in the aggregometer. The washed platelet was stirred (1000 rpm) at 37° C. and 3.8 μl of 0.1M of CaCl2 was added thereto. One minutes after, 0.5 μl of a solution of test compound (dimethylsulfoxide solution) was added and 2 minutes after, 1 μl of Collagen reagent Horm® [HORMON-CHEMIE Munchen GMBH, final concentrate 4 μg/ml) as a platelet aggregating agent was added. The change in light transmittance caused by platelet aggregation was recorded against time elasped.
50% aggregation inhibitory rate was calculated from the aggregation inhibitory rate (which was measured 3 minutes after adding a platelet aggregating agent). The light transmittance for the washed platelet and the buffer were setted at 0% and 100%, respectively.

In order of rising IC50:
1. CC1(C)[C@H]2C[C@H](C/C=C\CCCC(=O)O)[C@@H](NS(=O)(=O)c3ccccc3)[C@@H]1C2 [Compound 7b-a]  0.7 nM
2. CC1(C)[C@H]2C[C@H](C/C=C\CCCC(=O)O)[C@@H](NS(=O)(=O)c3cccc(Cl)c3)[C@@H]1C2 [Compound 7b-f]  1.3 nM
3. CC1(C)[C@H]2C[C@H](C/C=C/CCCC(=O)O)[C@@H](NS(=O)(=O)c3ccccc3)[C@@H]1C2 [Compound 10b-a]  1.4 nM
4. Cc1ccc(S(=O)(=O)N[C@@H]2[C@@H](C/C=C\CCCC(=O)O)C[C@H]3C[C@@H]2C3(C)C)cc1 [Compound 7b-b]  1.7 nM
5. CC1(C)[C@H]2C[C@H](C/C=C\CCCC(=O)O)[C@@H](NS(=O)(=O)c3ccc(O)cc3)[C@@H]1C2 [Compound 7b-k]  1.8 nM
6. COc1ccc(S(=O)(=O)N[C@@H]2[C@@H](C/C=C\CCCC(=O)O)C[C@H]3C[C@@H]2C3(C)C)cc1 [Compound 7b-i]  3.4 nM
7. CC1(C)[C@H]2C[C@H](C/C=C\CCCC(=O)O)[C@@H](NS(=O)(=O)c3ccc4ccccc4c3)[C@@H]1C2 [Compound 7b-m]  4.3 nM
8. CC1(C)[C@H]2C[C@H](C/C=C\CCCC(=O)O)[C@@H](NS(=O)(=O)c3ccc(Cl)cc3)[C@@H]1C2 [Compound 7b-d]  5.3 nM
9. CC1(C)[C@H]2C[C@H](C/C=C\CCCC(=O)O)[C@@H](NS(=O)(=O)c3ccccc3Cl)[C@@H]1C2 [Compound 7b-e]  6.4 nM
10. CCc1ccc(S(=O)(=O)N[C@@H]2[C@@H](C/C=C\CCCC(=O)O)C[C@H]3C[C@@H]2C3(C)C)cc1 [Compound 7b-g]  9.9 nM
11. CC1(C)[C@H]2C[C@H](C/C=C\CCCC(=O)O)[C@@H](NS(=O)(=O)c3ccc(-c4ccccc4)cc3)[C@@H]1C2 [Compound 7b-l]  9.9 nM
12. CC1(C)[C@H]2C[C@H](C/C=C\CCCC(=O)O)[C@H](NS(=O)(=O)c3ccccc3)[C@@H]1C2 [Compound 7a-a]  11 nM
13. CC1(C)[C@H]2C[C@H](C/C=C\CCCC(=O)O)[C@@H](NS(=O)(=O)CCCc3ccccc3)[C@@H]1C2 [Compound 7b-q]  12 nM
14. CC1(C)[C@H]2C[C@H](C/C=C\CCCC(=O)O)[C@@H](NS(=O)(=O)CCc3ccccc3)[C@@H]1C2 [Compound 7b-p]  13 nM
15. CC1(C)[C@H]2C[C@H](C/C=C\CCCC(=O)O)[C@@H](NS(=O)(=O)c3ccc([N+](=O)[O-])cc3)[C@@H]1C2 [Compound 7b-h]  26 nM
16. CC1(C)[C@H]2C[C@@H](C/C=C\CCCC(=O)O)[C@@H](NS(=O)(=O)c3ccccc3)[C@@H]1C2 [Compound 7d-a]  37 nM
17. CC1(C)C2CC(NCC(O)Cc3ccccc3)C(C/C=C\CCCC(=O)O)C1C2 (stereo not drawn) [ONO-11120, reference compound]  115 nM
18. Cc1ccc(S(=O)(=O)N[C@H]2[C@@H](C/C=C\CCCC(=O)O)C[C@H]3C[C@@H]2C3(C)C)cc1 [Compound 7a-b]  115 nM
19. CC1(C)[C@H]2C[C@H](C/C=C\CCCC(=O)O)[C@@H](NS(=O)(=O)Cc3ccccc3)[C@@H]1C2 [Compound 7b-o]  240 nM
20. CC1(C)[C@H]2C[C@H](C/C=C\CCCC(=O)O)[C@@H](NS(C)(=O)=O)[C@@H]1C2 [Compound 7b-n]  480 nM

System: platelet; smooth muscle of bronchi, and of coronary, cerebral and pulmonary arteries
Test: not given
Conditions: "it is said that"; prior art; cited from earlier work

In the case of `CCCCC[C@H](O)/C=C/[C@H]1O[C@H]2C[C@H](O2)[C@@H]1C/C=C\CCCC(=O)O` [thromboxane A2], the “concentration at which the strong action occurs” value is given as 10^-10 to 10^-11 M.
